Results reported in patent US11700805B2, “Regeneration of plants in the presence of histone deacetylase inhibitors” (KWS SAAT SE & CO. KGaA, priority 2017, dated 2023).
“Also recorded” adds a separate entry of the source. Like-named read-outs stand apart in the source and are kept apart here.

Legend:
[1] = tested on: Arabidopsis hypocotyl explants; settings: alone or in combination of kinetin and TSA; cited from earlier work
[2] = tested on: cells derived from male gametophytes of diverse plant species; settings: TSA added to the culture medium; cited from earlier work
[3] = tested on: friable calli from sugar beet leaf explants; assay: Shoot regeneration from friable calli induced in the presence of TSA; assay type: cell-based, Beta vulgaris
Procedure: 2. Technical Description of the Shoot Regeneration Protocol 1. The friable calli of step 4 were harvested in medium containing MS salts, 30 g/l sucrose, 1 mg/l GA3 and 1 mg/l TDZ, and transferred to separate dishes. 2. The dishes were incubated under the light (16 h) at 24° C. for 10 days. 3. Developing shoots were counted under a stereomicroscope, in order to estimate the regeneration capacity (number of shoots per initial leaf explant).

[4] = tested on: leaf explants of sugar beet (Beta vulgaris); assay type: cell-based
Procedure: 1. Technical Description of the Sugar Beet Callus Induction Protocol
This method is based on the publication by Kischenko et al., 2005 Cell Biology International.
1. Micropropagated shoots of the genotype S706 were used as starting material. Shoots were multiplied in MS salts supplemented with 30 g/l sucrose and 0.25 mg/l benzyladenine (BAP).
2. To induce friable callus, leaf explants were isolated from micropropagated shoots and incubated in medium containing MS salts including 15 g/l sucrose and 2 mg/l BAP as a control and in the same medium supplemented with 0.01 μM TSA (B1), 0.1 μM TSA (B2), 0.5 μM TSA (B3), 1.0 μM TSA (B4), and 5.0 μM TSA (B5), at 28° C. in the dark for 7 weeks.
3. Development of callus from leaf explants was monitored during the incubation in the callus induction medium at 4, 5, 6 and 7 weeks.
4. Leaf explants producing friable calli were scored in order to calculate the callus induction frequency (percentage of leaf explants that produced friable calli).

[5] = tested on: Arabidopsis leaf explants; settings: treatment with TSA; cited from earlier work

SMILES	induction of callus growth [1]	proportion of cells undergoing embryogenic growth [2]	average number of shoots per explant ([3]; genotype 1, callus induced with 0.01 μM TSA, control 4.7)	average number of shoots per explant ([3]; genotype 2, callus induced with 0.01 μM TSA, control 2.4)	regeneration of shoots from produced calli ([3]; genotype 3 (high level of recalcitrance), callus induced with 0.01 μM TSA)	number of regenerated shoots per explant ([3]; genotype S706, FIGS. 3C and 4C, vs control)	number of leaf explants with developing calli ([4]; after 28 days, without TSA not reached even after 49 days)	genotype-dependent recalcitrance to callus formation ([4]; first initial tests, TSA added)	average callus induction frequency ([4]; genotype 1, 0.01 μM TSA, control without TSA 66.3%)	callus induction frequency ([4]; genotype 2, 0.01 μM TSA vs control)	callus induction frequency ([4]; genotype 3 (high level of recalcitrance), 0.01 μM TSA)	speed of callus formation ([4]; genotype S706, FIG. 5, vs medium without TSA)	callus amount per leaf explant ([4]; genotype S706, FIGS. 3B and 4B, vs medium without TSA)	callus induction frequency (percentage of leaf explants that produced friable calli) ([4]; genotype S706, TSA 0.01 μM to 1.0 μM in callus induction medium, vs medium without TSA)	callus formation [5]
c1coc(CNc2ncnc3[nH]cnc23)c1 [Kinetin]	did not induce callus growth														
CC(/C=C/C(=O)NO)=C\[C@@H](C)C(=O)c1ccc(N(C)C)cc1 [TSA, trichostatin A]	did not induce callus growth	large increase	7.7	4.6	able to regenerate shoots only when the calli were produced in medium containing TSA; also recorded: only possible if the callus has been induced in the presence of TSA	increased	high number	could be reduced	82%	no significant increase	very low	accelerates	increases	increased	defective callus formation
